# Results: paper PMC7248707 (Molecules, 2020)
# Experiments:
# rat MOR = target: rat MOR; set-up: method as in PMID 2537427; conditions: rat brain tissue; cited from earlier work
# [1] = cited from earlier work
# human MOR [2] = target: T1, human MOR (Homo sapiens, UniProt P35372)
# human MOR [3] = target: T1, human MOR; remark: listed apart in the source
# MOR = conditions: read-out: IC50 in the GPI bioassay; cited from earlier work
# T1 sequence (P35372 whole entry): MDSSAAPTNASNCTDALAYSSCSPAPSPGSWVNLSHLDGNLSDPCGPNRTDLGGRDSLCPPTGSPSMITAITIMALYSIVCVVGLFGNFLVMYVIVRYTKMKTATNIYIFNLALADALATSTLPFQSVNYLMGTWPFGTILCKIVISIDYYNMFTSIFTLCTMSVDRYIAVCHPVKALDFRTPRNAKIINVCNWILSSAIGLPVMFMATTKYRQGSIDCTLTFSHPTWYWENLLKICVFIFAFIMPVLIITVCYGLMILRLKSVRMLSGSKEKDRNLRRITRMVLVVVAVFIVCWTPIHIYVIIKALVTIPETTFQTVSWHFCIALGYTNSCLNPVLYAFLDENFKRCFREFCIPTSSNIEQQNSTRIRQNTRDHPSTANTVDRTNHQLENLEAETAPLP
Structure (SMILES),Ki (rat MOR) [nM],BBB crossing / CNS entry [1],better MOR affinity than DAMGO (human MOR [2]; relative to DAMGO) [fold],increase in MOR affinity versus [Dmt^1]DALDA (human MOR [2]; relative to [Dmt^1]DALDA),enhanced MOR agonist potency versus [Dmt^1]DALDA (human MOR [3]) [fold],EC50 (human MOR [3]; read-out: Agonist Activity EC50) [nM],IC50 (MOR) [nM]
"NCCCC[C@H](NC(=O)[C@H](Cc1ccccc1)NC(=O)[C@@H](CCCN=C(N)N)NC(=O)[C@@H](N)Cc1ccc(O)cc1)C(N)=O [DALDA, H-Tyr-D-Arg-Phe-Lys-NH2]",1.69,does not cross the BBB,,,,,
Cc1cc(O)cc(C)c1C[C@H](N)C(=O)N[C@H](CCCNC(=N)N)C(=O)N[C@H]1Cc2ccccc2CN(CCC(N)=O)C1=O [KGOP01],,can enter the CNS,13,ca. 2 fold,5,0.1 ± 0.02,0.8
